From the supplement of paper PMC10307832

Tests used:
Test in all cases: relative viability (nuclei count vs DMSO), 5 days (fraction); higher = more cells survive
Gemcitabine + OSI-027 = compound: Nc1ccn([C@@H]2O[C@H](CO)[C@@H](O)C2(F)F)c(=O)n1 [Gemcitabine] + COc1cccc2cc(-c3nc([C@H]4CC[C@H](C(=O)O)CC4)n4ncnc(N)c34)[nH]c12 [OSI-027] (partner 0.5 µM)
How it was run: (§1)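 A single step with final 0.05% Triton X-100, 1% formaldehyde and 1 ug/ml Hoechst fixed the cells and stained nuclei 5 days after treatment. Lung cancer cell lines in 1536-well plates had been treated by pin tool the day after seeding with one drug alone or a fixed anchor-drug dose plus five library-drug doses (not always all listed) in √10 steps, and nuclei were counted on 4× images. Relative viability is the ratio of nuclei in treated wells to nuclei in vehicle wells, taken as the median of duplicate plates.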

Gemcitabine + Lapatinib = compound: Nc1ccn([C@@H]2O[C@H](CO)[C@@H](O)C2(F)F)c(=O)n1 [Gemcitabine] + CS(=O)(=O)CCNCc1ccc(-c2ccc3ncnc(Nc4ccc(OCc5cccc(F)c5)c(Cl)c4)c3c2)o1 [Lapatinib] (partner 2 µM)
How it was run: as §1

Gemcitabine + Linsitinib = compound: Nc1ccn([C@@H]2O[C@H](CO)[C@@H](O)C2(F)F)c(=O)n1 [Gemcitabine] + C[C@]1(O)C[C@@H](c2nc(-c3ccc4ccc(-c5ccccc5)nc4c3)c3c(N)nccn32)C1 [Linsitinib] (partner 1 µM)
How it was run: as §1

Gemcitabine + Alpelisib = compound: Nc1ccn([C@@H]2O[C@H](CO)[C@@H](O)C2(F)F)c(=O)n1 [Gemcitabine] + Cc1nc(NC(=O)N2CCC[C@H]2C(N)=O)sc1-c1ccnc(C(C)(C)C(F)(F)F)c1 [Alpelisib] (partner 2 µM)
How it was run: as §1

| Cell Line | relative viability (Gemcitabine + OSI-027; first compound 0.001 µM) | relative viability (Gemcitabine + OSI-027; first compound 0.003162 µM) | relative viability (Gemcitabine + OSI-027; first compound 0.01 µM) | relative viability (Gemcitabine + OSI-027; first compound 0.03162 µM) | relative viability (Gemcitabine + OSI-027; first compound 0.1 µM) | relative viability (Gemcitabine + Lapatinib; first compound 0.001 µM) | relative viability (Gemcitabine + Lapatinib; first compound 0.003162 µM) | relative viability (Gemcitabine + Lapatinib; first compound 0.01 µM) | relative viability (Gemcitabine + Lapatinib; first compound 0.03162 µM) | relative viability (Gemcitabine + Lapatinib; first compound 0.1 µM) | relative viability (Gemcitabine + Linsitinib; first compound 0.001 µM) | relative viability (Gemcitabine + Linsitinib; first compound 0.003162 µM) | relative viability (Gemcitabine + Linsitinib; first compound 0.01 µM) | relative viability (Gemcitabine + Linsitinib; first compound 0.03162 µM) | relative viability (Gemcitabine + Linsitinib; first compound 0.1 µM) | relative viability (Gemcitabine + Alpelisib; first compound 0.001 µM) | relative viability (Gemcitabine + Alpelisib; first compound 0.003162 µM) | relative viability (Gemcitabine + Alpelisib; first compound 0.01 µM) | relative viability (Gemcitabine + Alpelisib; first compound 0.03162 µM) | relative viability (Gemcitabine + Alpelisib; first compound 0.1 µM) |
| --- | --- | --- | --- | --- | --- | --- | --- | --- | --- | --- | --- | --- | --- | --- | --- | --- | --- | --- | --- | --- |
| 201T | 0.653 | 0.747 | 0.122 | 0.146 | 0.114 | 0.981 | 1.04 | 1.03 | 0.942 | 0.537 | 1.07 | 1.06 | 1.06 | 0.663 | 0.339 | 0.939 | 0.97 | 0.943 | 0.396 | 0.331 |
| A549 |  |  |  |  |  | 0.967 | 0.747 | 0.249 | 0.0488 | 0.033 | 0.705 | 0.356 | 0.0342 | 0.0143 | 0.0157 | 0.919 | 0.276 | 0.0341 | 0.0189 | 0.0253 |
| A-427 | 0.401 | 0.338 | 0.148 | 0.17 | 0.113 | 1.09 | 0.686 | 0.808 | 0.199 | 0.13 | 1.06 | 1.03 | 0.895 | 0.209 | 0.138 | 1.03 | 0.99 | 0.764 | 0.169 | 0.0914 |
| ABC-1 | 0.364 |  | 0.218 | 0.252 | 0.116 | 1.14 | 1.2 | 0.95 | 0.88 | 0.664 | 0.92 | 1.01 | 0.689 | 0.286 | 0.243 | 0.95 | 0.97 | 0.838 | 0.45 | 0.307 |
| BEN | 0.299 | 0.274 | 0.174 | 0.167 | 0.167 | 0.625 | 0.529 | 0.197 | 0.112 | 0.108 | 1.07 | 0.653 | 0.255 | 0.11 | 0.0904 | 1.09 | 0.659 | 0.253 | 0.117 | 0.0816 |
| CAL-12T | 0.645 | 0.47 | 0.451 | 0.152 | 0.13 | 0.786 | 0.65 | 0.396 | 0.264 | 0.181 | 0.777 | 0.859 | 0.567 | 0.256 | 0.169 | 1.6 | 0.917 | 0.84 | 0.285 | 0.164 |
| COR-L23 | 0.955 | 0.627 | 0.264 | 0.0984 | 0.101 | 1.02 | 0.896 | 0.72 | 0.105 | 0.105 | 1.19 | 0.954 | 0.467 | 0.0831 | 0.0803 | 0.763 | 0.634 | 0.229 | 0.118 | 0.0742 |
| COR-L 105 | 0.763 | 0.72 | 0.311 | 0.295 | 0.226 | 0.362 | 0.355 | 0.314 | 0.302 | 0.269 | 0.88 | 0.734 | 0.6 | 0.278 | 0.269 | 1.22 | 0.95 | 0.526 | 0.261 | 0.21 |
| Calu-6 |  |  |  |  |  | 1.03 | 0.799 | 0.348 | 0.167 | 0.126 | 0.948 | 0.618 | 0.234 | 0.129 | 0.0919 | 1.02 | 0.415 | 0.224 | 0.13 | 0.12 |
| ChaGo-K-1 | 0.516 | 0.458 | 0.212 | 0.185 | 0.164 |  |  |  |  |  |  |  |  |  |  |  |  |  |  |  |
| EBC-1 |  |  |  |  |  | 0.15 | 0.187 | 0.176 | 0.181 | 0.167 | 0.777 | 0.369 | 0.142 | 0.0966 | 0.115 | 0.589 | 0.21 | 0.168 | 0.187 | 0.165 |
| EKVX | 0.773 | 0.719 | 0.391 | 0.147 | 0.122 | 0.238 | 0.354 | 0.111 | 0.116 | 0.12 | 1.07 | 0.727 | 0.541 | 0.188 | 0.118 | 0.93 | 0.77 | 0.454 | 0.147 | 0.132 |
| EMC-BAC-2 | 0.422 | 0.423 | 0.212 | 0.214 | 0.223 | 0.923 | 0.979 | 0.86 | 0.198 | 0.159 | 0.797 | 0.822 | 0.751 | 0.191 | 0.154 | 0.726 | 0.768 | 0.627 | 0.12 | 0.0893 |
| EPLC-272H | 0.334 | 0.298 | 0.159 | 0.136 | 0.105 | 1.08 | 0.257 | 0.664 | 0.19 | 0.0848 | 1.21 | 1.18 | 0.883 | 0.673 | 0.0949 | 1.04 | 0.809 | 0.541 | 0.304 | 0.1 |
| H3255 | 0.353 | 0.366 | 0.394 | 0.26 | 0.248 | 0.223 | 0.235 | 0.221 | 0.138 | 0.159 | 0.954 | 0.644 | 0.762 | 0.233 | 0.145 | 0.8 | 0.403 | 0.472 | 0.185 | 0.168 |
| HARA | 0.734 | 0.68 | 0.388 | 0.175 | 0.0508 | 0.77 | 0.836 | 0.794 | 0.604 | 0.137 | 1.05 | 1.01 | 0.832 | 0.293 | 0.0949 | 0.827 | 0.808 | 0.682 | 0.233 | 0.0894 |
| HCC-15 | 0.773 | 0.624 | 0.578 | 0.142 | 0.0829 | 0.918 | 0.88 | 0.829 | 0.55 | 0.121 | 0.981 | 0.893 | 0.848 | 0.217 | 0.0888 | 1.01 | 0.893 | 0.766 | 0.145 | 0.0627 |
| HCC-44 | 0.562 | 0.352 | 0.357 | 0.178 | 0.155 | 1.01 | 0.98 | 0.897 | 0.477 | 0.17 | 0.628 | 0.672 | 0.589 | 0.166 | 0.143 | 0.808 | 0.791 | 0.636 | 0.238 | 0.122 |
